Each structure is given as a SMILES string. Like-named read-outs stand apart in the source and are kept apart here.

Series [1] has as its target T1, SARS-CoV-2 Mpro (Severe acute respiratory syndrome coronavirus 2, UniProt P0DTD1).
T1 construct: SARS-CoV-2 Mpro; purchased WuXi AppTec
Description: In vitro anti-novel coronavirus Mpro protease activity (fluorogenic substrate). The following applies: 25 nM Mpro, 25 μM substrate, 30 min pre-incubation. In kind it is biochemical. The protocol:
The compound was dissolved in DMSO, and diluted in a 3-fold gradient with Echo655 according to the concentration requirements to 10 concentration points, and duplicate tests were set at each concentration, and the diluted solution was added to a 384-well plate. Mpro protein and substrate were diluted with test buffer (100 mM NaCl, 20 mM Tris-HCl, 1 mM EDTA), and Mpro protein was added to the 384-well test plate, incubated with the compound for 30 min at room temperature, and then the substrate was added thereto, and the test concentration of Mpro protein was 25 nM, and the test concentration of substrate was 25 μM. After incubating for 60 minutes in a 30° C. constant temperature incubator, the fluorescence signal value of Ex/Em=340 nm/490 nm was detected by microplate reader. At the same time, the background well containing the substrate and compound but not containing Mpro protein was detected as control.
1) The inhibition rate was calculated using the following formula:
Inhibition rate %=[(compound-BGcompound)−(ZPE-BGZPE)]/[(HPE-BGHPE)−(ZPE-BGZPE)]*100%
ZPE: No-inhibition control, containing 25 nM Mpro protein+25 μM substrate, not containing compound
Compound: Test compound well, containing 25 nM Mpro protein+25 μM substrate+compound
BG: Background control well, containing 25 μM substrate+compound, not containing Mpro protein
2) Log (agonist) vs. response—variable slope nonlinear fitting analysis was carried out on the inhibition rate data (inhibition rate %) of the compound by using GraphPad Prism software, and the IC50 value of the compound was obtained.

A short description of series [2]: Tissue distribution test in rats (after Ritonavir). In kind it is in vivo, SD male rats. As to conditions: rat, po, 30 mg/kg, with Ritonavir. The protocol: In this study, SD male rats were selected as test animals, and the drug concentrations of test compounds in plasma and lungs of rats at different time points were quantitatively measured by LC/MS/MS method to evaluate the pharmacokinetic characteristics of test drugs in rats.
Firstly, 10 mpk of Ritonavir was administered to rats by intragastric administration at −12 h and 0 h, and 30 mpk of the test compound was dissolved in 10% Solutol+30% PEG 400+2% Tween 80+H2O 58% solution and administered to rats by intragastric administration (overnight fasting). 40 μL of blood was collected from the saphenous vein of rats at 0.25, 1 and 6 hours after administration, placed in an anticoagulant tube added with EDTA-K2, centrifuged at 4° C., 3200 g for 10 min to obtain plasma, and some animals were killed at 0.25, 1 and 6 hours respectively to collect lung tissue. After the plasma samples were treated, the plasma concentration was determined by LC-MS/MS method.

Series [3] in a line: Pharmacokinetics test of mice. Format: in vivo, C57BL/6J male mice. The following applies: mouse, plasma. The procedure: In this study, C57BL/6J male mice were selected as test animals, and LC/MS/MS method was used to quantitatively measure the plasma concentration of the test compound 11 at different time points after oral administration and injection in mice, so as to evaluate the pharmacokinetic characteristics of the test drug in mice.
The test compound dissolved in 30% PEG400+70% normal saline was administered to mice (overnight fasting, 6-8 weeks old) by intragastric administration. 25 μL of blood was collected at 0.083, 0.25, 0.5, 1, 2, 4, 8, 12 and 24 hours after administration, respectively, and placed in commercial anticoagulation tubes pre-added with EDTA-K2, centrifuged at 4° C., 3200 g for 10 min to obtain plasma, and after the plasma sample was treated, the plasma concentration was determined by LC-MS/MS method.

Series [4] is described as follows: Pharmacokinetic test in combination with Ritonavir in mice. In kind it is in vivo, C57BL/6J male mice. As to conditions: mouse, plasma, po, 10 mg/kg, p.o. 10 mpk. The procedure: In this study, C57BL/6J male mice were selected as test animals, and the LC/MS/MS method was used to quantitatively measure the plasma concentrations of mice in combination with Ritonavir at different time points, so as to evaluate the pharmacokinetic characteristics of the test drug in mice.
Firstly, 10 mpk of Ritonavir was administered to mice by intragastric administration at −12 h and 0 h, and then the test compound was dissolved in 30% PEG400+70% normal saline solution and administered to mice by intragastric administration (overnight fasting, 6 to 8 weeks old). 25 μL of blood was collected at 0.083, 0.25, 0.5, 1, 2, 4, 8, 12 and 24 hours after administration to animals, placed in a commercial anticoagulant tube pre-added with EDTA-K2, and centrifuged at 4° C., 3200 g for 10 min to obtain plasma. After the plasma samples were treated, the plasma concentration was determined by LC-MS/MS method.

`CC(C)(C)[C@H](NC(=O)C(F)(F)F)C(=O)N1C[C@@H]2C3C=CC(C3)[C@@H]2[C@H]1C(=O)N[C@H](C#N)C[C@@H]1CCNC1=O` (single isomer, unassigned) [Compound 28A] returned an IC50 in series [1] of 2.6 nM. This counts as single-digit nanomolar.
Turning to `CC(C)(C)[C@H](NC(=O)C(F)(F)F)C(=O)N1C[C@@H]2C3C=CC(C3)[C@@H]2[C@H]1C(=O)N[C@H](C#N)C[C@@H]1CCNC1=O` (single isomer, unassigned) [Compound 28], in series [1], the IC50 amounted to 31 nM. This IC50 is about 12-fold higher than that of the compound before.
As for `CC(C)(C)[C@H](NC(=O)C(F)(F)F)C(=O)N1C[C@@H]2C3CCC(C3)[C@@H]2[C@H]1C(=O)N[C@H](C#N)C[C@@H]1CCNC1=O` (single isomer, unassigned) [Compound 29-1], 264 nM corresponded to half-maximal inhibition in series [1] (IC50).
The same measure, in the same setting: for `CC(C)(C)[C@H](NC(=O)C(F)(F)F)C(=O)N1C[C@@H]2C3CCC(C3)[C@@H]2[C@H]1C(=O)N[C@H](C#N)C[C@@H]1CCNC1=O` (single isomer, unassigned) [Compound 29-2] the value was 11 nM; for `N#C[C@H](C[C@@H]1CCNC1=O)NC(=O)[C@@H]1[C@H]2CC[C@H](C2)N1C(=O)[C@@H](NC(=O)C(F)(F)F)C12CC3CC(CC(F)(C3)C1)C2` [Compound 9], 25 nM.
Take `CC(C)(C)[C@H](NC(=O)C(F)(F)F)C(=O)N1[C@H]2C[C@@H]([C@H]1C(=O)N[C@H](C#N)C[C@@H]1CCNC1=O)C1(CC1)C2` [Compound 11]: the Kp at 0.25 h in series [2] (lung, 0.25 h, given as x/1, read-out: Lung/plasma ratio at 0.25 h) was found to be 5.5. Besides, the Kp at 1 h in series [2] (lung, 1 h, given as x/1, read-out: Lung/plasma ratio at 1 h) came out at 3.2. The Kp at 6 h in series [2] (lung, 6 h, given as x/1, read-out: Lung/plasma ratio at 6 h) is 1.6; in series [2] (lung, given as x/1, read-out: Lung/plasma ratio of AUC(0-6 h)) it was 2.6. The concentration at 0.25 h in series [2] (30 mpk intragastric, lung, 0.25 h, read-out: Lung concentration at 0.25 h) came to 15.8 µM; in series [2] (30 mpk intragastric, plasma, 0.25 h, read-out: Plasma concentration at 0.25 h), 2.86 µM. In addition, the concentration at 1 h worked out at 18.4 µM in series [2] (30 mpk intragastric, lung, 1 h, read-out: Lung concentration at 1 h) and 5.49 µM in series [2] (30 mpk intragastric, plasma, 1 h, read-out: Plasma concentration at 1 h). Besides, the concentration at 6 h was determined as 7.85 µM in series [2] (30 mpk intragastric, lung, 6 h, read-out: Lung concentration at 6 h) and 4.88 µM in series [2] (30 mpk intragastric, plasma, 6 h, read-out: Plasma concentration at 6 h). Also, the AUC at 6 h in series [2] (30 mpk intragastric, lung, read-out: Lung AUC(0-6 h)) was found to be 76.8 µM·h. In series [2] (30 mpk intragastric, plasma), this compound yielded an AUC(0-t) at 6 h of 29.4 µM·h. Further, the AUC(0-t) in series [3] (iv, 3 mg/kg, i.v. 3 mpk) turned out to be 1.45 µM·h; in series [3] (po, 10 mg/kg, p.o. 10 mpk), 1.52 µM·h; in series [4] (with Ritonavir 10 mpk), 28.7 µM·h. Moreover, the clearance in series [3] (iv, 3 mg/kg, i.v. 3 mpk) worked out at 68.5 mL/min/kg. The compound further gave a half-life in series [3] (iv, 3 mg/kg, i.v. 3 mpk) of 12 min. Further, in series [3] (iv, 3 mg/kg, i.v. 3 mpk, read-out: Vdss), the Vd was 0.9 L/kg. Also, the Tmax came to 15 min in series [3] (po, 10 mg/kg, p.o. 10 mpk) and 30 min in series [4] (with Ritonavir 10 mpk). The Cmax in series [3] (po, 10 mg/kg, p.o. 10 mpk) stood at 1.85 µM; in series [4] (with Ritonavir 10 mpk at −12 h and 0 h) it was 10.1 µM.

For the origin of these results see patent US20240158373A1, “RING-MODIFIED PROLINE SHORT PEPTIDE COMPOUND AND USE THEREOF” (FUJIAN AKEYLINK BIOTECHNOLOGY CO., LTD., priority 2021, published 2024).
